The results in this text go back to PubChem BioAssay (NCI).

Test systems include NCI-H226 lung; HOP-62 NSCLC; SF-539 CNS; KM12 colon; MOLT-4 leukemia; MCF7 breast; HCC-2998 colon; SW-620 colon; NCI/ADR-RES ovarian; NCI-H522 lung.
Common to all, as to experiment: growth of human tumour cells (NCI), 48 h

Structures are written as SMILES. Several values for one entry are separate records, joined by “and”; a condition that tells them apart may be missing. Equal values may be shown once.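 Results reflect a 48-hour exposure of cells in 96-well plates to compound at five concentrations. GI50 marks 50% less growth. TGI: total growth inhibition.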

For the molecule `CCC(=O)Nc1ccccc1C#C/C=C\C#Cc1ccccc1SC`, the GI50 in the experiment on NCI-H226 lung is 16.9 µM; with HOP-62 NSCLC, 10 µM; in the experiment with SF-539 CNS it was 14.2 µM; in the experiment on KM12 colon, 5.27 µM; with MOLT-4 leukemia it was 4.46 µM; with MCF7 breast, 3.39 µM. Moreover, the GI50 is 5.09 µM in the experiment on HCC-2998 colon, 4.62 µM with SW-620 colon, 5.15 µM in the experiment with NCI/ADR-RES ovarian and 8.89 µM with NCI-H522 lung. For the same molecule, the TGI in the experiment with NCI-H226 lung was above 100 µM; in the experiment on HOP-62 NSCLC, above 100 µM; with SF-539 CNS it was above 100 µM; in the experiment with KM12 colon, above 100 µM; with MOLT-4 leukemia it was above 100 µM; in the experiment with MCF7 breast, 29.7 µM. Besides, the TGI in the experiment on HCC-2998 colon was 27.3 µM; with SW-620 colon, above 100 µM; in the experiment on NCI/ADR-RES ovarian, 65.2 µM; with NCI-H522 lung, above 100 µM.
For `C[C@@H](O)[C@H](NC(=O)N[C@@H](CC(N)=O)c1nc([C@@H](N)CO)no1)C(=O)O`, the GI50 with NCI-H226 lung, in the experiment with HOP-62 NSCLC, with SF-539 CNS, in the experiment with KM12 colon, in the experiment on MOLT-4 leukemia and with MCF7 breast was above 100 µM in each case. Also, the GI50 in the experiment with HCC-2998 colon, in the experiment with SW-620 colon, in the experiment with NCI/ADR-RES ovarian and in the experiment on NCI-H522 lung was above 100 µM throughout. Further, the TGI in the experiment on NCI-H226 lung, in the experiment with HOP-62 NSCLC, in the experiment on SF-539 CNS, with KM12 colon, in the experiment with MOLT-4 leukemia and in the experiment with MCF7 breast was above 100 µM each time. Further, the TGI in the experiment with HCC-2998 colon, with SW-620 colon, with NCI/ADR-RES ovarian and in the experiment with NCI-H522 lung was above 100 µM each time.
Regarding `COc1cc(N2CCC(N3CCN(C)CC3)CC2)ccc1Nc1ncnc(Nc2ccccc2S(=O)(=O)C(C)C)n1`, the GI50 was 2.19 µM with NCI-H226 lung; 2.29 µM in the experiment on HOP-62 NSCLC; 3.46 µM with SF-539 CNS; 6.76 µM with KM12 colon; 5.07 µM in the experiment with MOLT-4 leukemia; 2.36 µM in the experiment with MCF7 breast. Moreover, the GI50 with HCC-2998 colon was 13.2 µM; with SW-620 colon, 3.68 µM; in the experiment on NCI/ADR-RES ovarian it was 7.26 µM; in the experiment with NCI-H522 lung it was 4.65 µM. Further, the TGI in the experiment on NCI-H226 lung was 17.5 µM; in the experiment with HOP-62 NSCLC, 11.1 µM; in the experiment on SF-539 CNS, 14.6 µM; with KM12 colon, 27.6 µM; with MOLT-4 leukemia, above 64.8 µM; with MCF7 breast, 23.5 µM. For the same molecule, the TGI stood at 36.9 µM in the experiment with HCC-2998 colon, 39.5 µM in the experiment on SW-620 colon, 42.6 µM in the experiment with NCI/ADR-RES ovarian and 14 µM in the experiment on NCI-H522 lung.
For the molecule `C[C@]12CC[C@H](OC3OC(CO)C(O)C(O)C3O)C[C@H]1CC[C@@H]1[C@@H]2CC[C@]2(C)[C@@H](C3=CCOC3=O)CC[C@]12O` (stereo partly drawn), the TGI with NCI-H226 lung was 26.4 µM and > 100 µM; in the experiment with HOP-62 NSCLC it was 13.8 µM and > 100 µM and 50.3 µM; with SF-539 CNS, 7.96 µM and 1.6 µM; in the experiment with KM12 colon, 50 µM and > 100 µM; in the experiment with MOLT-4 leukemia it was 50 µM and > 100 µM; in the experiment with MCF7 breast, 47.2 µM and > 100 µM. Moreover, the TGI is 50 µM and > 100 µM with HCC-2998 colon; 50 µM and > 100 µM in the experiment on SW-620 colon; 50 µM and > 100 µM in the experiment with NCI/ADR-RES ovarian; 50 µM and > 100 µM with NCI-H522 lung. Moreover, the GI50 in the experiment with SF-539 CNS is 0.198 µM; with KM12 colon, above 100 µM; in the experiment with MOLT-4 leukemia it was 22.5 µM and > 100 µM; in the experiment on MCF7 breast, above 100 µM; with HCC-2998 colon it was above 100 µM; with SW-620 colon, above 100 µM. In addition, the GI50 with NCI/ADR-RES ovarian is above 100 µM; in the experiment with NCI-H522 lung, 74.9 µM and 10.1 µM.
With `COc1ccc(/C(COc2ccc3c(=O)c(-c4ccccc4)coc3c2)=N\O)cc1`, the GI50 was 15.2 µM in the experiment on NCI-H226 lung; 8.52 µM in the experiment with HOP-62 NSCLC; 1.6 µM in the experiment with SF-539 CNS; 1.5 µM with KM12 colon; 1.08 µM in the experiment with MOLT-4 leukemia; 3.16 µM in the experiment with MCF7 breast. The GI50 is 3.09 µM in the experiment on HCC-2998 colon, 2.37 µM with SW-620 colon, 0.652 µM in the experiment with NCI/ADR-RES ovarian and 4.65 µM in the experiment on NCI-H522 lung. Further, the TGI is 89 µM in the experiment with NCI-H226 lung; 33.7 µM in the experiment with HOP-62 NSCLC; 5.32 µM in the experiment on SF-539 CNS; 40.4 µM in the experiment on KM12 colon; above 100 µM in the experiment on MOLT-4 leukemia; above 50.9 µM in the experiment on MCF7 breast. Also, the TGI was 9.15 µM with HCC-2998 colon, 16.9 µM in the experiment with SW-620 colon, 35.5 µM with NCI/ADR-RES ovarian and 20.6 µM in the experiment on NCI-H522 lung.
As for `C[C@]12CC[C@@H]3c4cc(-c5ccc(F)cc5)c(O)cc4CC[C@H]3[C@@H]1CC[C@@H]2O`, the GI50 in the experiment with NCI-H226 lung is 10.3 µM; with HOP-62 NSCLC, 11.2 µM; in the experiment with SF-539 CNS it was 9.42 µM; in the experiment with KM12 colon, 6.49 µM; in the experiment on MOLT-4 leukemia it was 4.88 µM; in the experiment with MCF7 breast, 5.21 µM. In addition, the GI50 in the experiment with HCC-2998 colon is 16.8 µM; with SW-620 colon, 10.1 µM; in the experiment with NCI/ADR-RES ovarian, 6.95 µM; in the experiment with NCI-H522 lung, 3.79 µM. Besides, the TGI with NCI-H226 lung was found to be 30.4 µM; with HOP-62 NSCLC, 28.3 µM; in the experiment with SF-539 CNS it was 22.9 µM; in the experiment with KM12 colon, 20.9 µM; in the experiment with MOLT-4 leukemia, 18.3 µM; in the experiment on MCF7 breast it was 18.6 µM. Besides, the TGI was determined as 38.2 µM in the experiment with HCC-2998 colon, 21.8 µM in the experiment with SW-620 colon, 65.9 µM in the experiment on NCI/ADR-RES ovarian and 16.7 µM in the experiment on NCI-H522 lung.
